Experimental data as given in PubChem BioAssay AID256 (DTP/NCI, 2004).
Values joined by “and” are separate entries in the source; they are usually repeats but may differ in a detail not shown here. Equal entries are not always repeated. Toxic doses and inconclusive results are not listed.

Tested on: CD2F1 mice, L1210 leukemia ip, survival T/C
Experiment: NCI In Vivo Anticancer Drug Screen. Data for tumor model L1210 Leukemia (intraperitoneal) in CD2F1 (CDF1) mice
Conditions: higher = longer survival
Outline: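 In this screen, transplantable tumors were grown in mice given either the compound or its vehicle. Results were expressed as the treated measurement relative to the control measurement.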

[1] = endpoint: mean survival time, dose: 100.0 mg/kg/injection, schedule: Q01DX001 (ip), vehicle: saline with Tween-80
[2] = endpoint: mean survival time, dose: 200.0 mg/kg/injection, schedule: Q01DX001 (ip), vehicle: saline with Tween-80
[3] = endpoint: mean survival time, dose: 400.0 mg/kg/injection, schedule: Q01DX001 (ip), vehicle: saline with Tween-80
[4] = endpoint: mean survival time, dose: 100.0 mg/kg/injection, schedule: Q04DX003 (ip), vehicle: saline with Tween-80
[5] = endpoint: mean survival time, dose: 400.0 mg/kg/injection, schedule: Q04DX003 (ip), vehicle: saline with Tween-80
[6] = endpoint: mean survival time, dose: 100.0 mg/kg/injection, schedule: Q04DX002 (ip), vehicle: saline
[7] = endpoint: mean survival time, dose: 200.0 mg/kg/injection, schedule: Q04DX002 (ip), vehicle: saline
[8] = endpoint: mean survival time, dose: 200.0 mg/kg/injection, schedule: Q04DX003 (ip), vehicle: saline with Tween-80
[9] = endpoint: mean survival time, dose: 25.0 mg/kg/injection, schedule: Q01DX009 (ip), vehicle: saline with Tween-80
[10] = endpoint: mean survival time, dose: 50.0 mg/kg/injection, schedule: Q01DX009 (ip), vehicle: saline with Tween-80
[11] = endpoint: mean survival time, dose: 100.0 mg/kg/injection, schedule: Q01DX009 (ip), vehicle: saline with Tween-80
[12] = endpoint: mean survival time, dose: 200.0 mg/kg/injection, schedule: Q01DX009 (ip), vehicle: saline with Tween-80
[13] = endpoint: mean survival time, dose: 100.0 mg/kg/injection, schedule: Q04DX003 (ip), vehicle: saline
[14] = endpoint: mean survival time, dose: 200.0 mg/kg/injection, schedule: Q04DX003 (ip), vehicle: saline
[15] = endpoint: mean survival time, dose: 100.0 mg/kg/injection, schedule: Q04DX002 (ip), vehicle: saline with Tween-80
[16] = endpoint: mean survival time, dose: 200.0 mg/kg/injection, schedule: Q04DX002 (ip), vehicle: saline with Tween-80
[17] = endpoint: mean survival time, dose: 400.0 mg/kg/injection, schedule: Q04DX002 (ip), vehicle: saline with Tween-80
[18] = endpoint: mean survival time, dose: 100.0 mg/kg/injection, schedule: Q01DX009 (ip), vehicle: saline
[19] = endpoint: mean survival time, dose: 200.0 mg/kg/injection, schedule: Q01DX009 (ip), vehicle: saline

O=C(Oc1ccccc1)c1cc(O)c(O)c(O)c1
T/C (endpoint: median survival time, dose: 25.0 mg/kg/injection, schedule: Q01DX009 (ip), vehicle: saline with Tween-80): 101 % of control
T/C (endpoint: median survival time, dose: 50.0 mg/kg/injection, schedule: Q01DX009 (ip), vehicle: saline with Tween-80): 98 % of control
T/C (endpoint: median survival time, dose: 100.0 mg/kg/injection, schedule: Q01DX009 (ip), vehicle: saline with Tween-80): 105 % of control
T/C (endpoint: median survival time, dose: 200.0 mg/kg/injection, schedule: Q01DX009 (ip), vehicle: saline with Tween-80): 112 % of control

COC(=O)CC1(C(=O)OC)Nc2cc(Cl)c(Cl)cc2S(=O)(=O)N1O (stereo not drawn)
T/C [1]: 106 % of control
T/C [2]: 94 % of control
T/C [3]: 94 % of control

O=C(O)c1ccccc1C(=O)Nc1ccc([N+](=O)[O-])cc1
T/C [4]: 98 % of control
T/C [5]: 91 % of control

CC(=O)C(C[CH2][Hg][Cl])C(C)=O
T/C (endpoint: mean survival time, dose: 75.0 mg/kg/injection, schedule: Q01DX001 (ip), vehicle: other): 92 % of control

COC1OCCC(C)O1 (stereo not drawn)
T/C [6]: 104 % of control
T/C [7]: 104 % of control
T/C (endpoint: mean survival time, dose: 400.0 mg/kg/injection, schedule: Q04DX002 (ip), vehicle: saline): 107 % of control

OC(CN=C/C=C/c1ccccc1)c1ccccc1 (stereo not drawn)
T/C [4]: 95 % of control
T/C [8]: 89 % of control
T/C [5]: 92 % of control

CCOc1c(Cl)cc(Cl)cc1C(c1ccc(Cl)cc1S(=O)(=O)O)c1cc(Cl)cc(Cl)c1OCC
T/C [9]: 98 % of control
T/C [10]: 89 % of control
T/C [11]: 86 % of control

COc1ccccc1N=Nc1c(O)n(-c2ccccc2OC)c(=S)n(-c2ccc(I)cc2)c1=O
T/C [1]: 96 % of control
T/C [2]: 93 % of control
T/C [3]: 95 % of control

O=C(O)CNS(=O)(=O)c1ccccc1
T/C [4]: 98 % of control
T/C [8]: 101 % of control
T/C [5]: 93 % of control

O=c1oc(-c2ccc3c(c2)OCO3)nc2ccccc12
T/C [4]: 91 % of control
T/C [8]: 87 % of control

O=[N+]([O-])c1ccc2c(c1[N+](=O)[O-])CCCC2
T/C [1]: 104 % of control
T/C [2]: 107 % of control
T/C [3]: 93 % of control

OC(CC(O)(C(F)(F)F)C(F)(F)F)CC(O)(C(F)(F)F)C(F)(F)F
T/C (endpoint: mean survival time, dose: 6.25 mg/kg/injection, schedule: Q01DX009 (ip), vehicle: saline with Tween-80): 95 % of control
T/C (endpoint: mean survival time, dose: 12.5 mg/kg/injection, schedule: Q01DX009 (ip), vehicle: saline with Tween-80): 92 % of control
T/C [9]: 90 % of control

c1ccc(CCc2nc(-c3ccccc3)cc(-c3ccccc3)n2)cc1
T/C [1]: 89 % of control
T/C [2]: 92 % of control
T/C [3]: 87 % of control

CC(C)(C)c1cc(/C=N/NC(=O)CNC(=O)NCc2ccco2)cc(C(C)(C)C)c1O
T/C [10]: 93 % of control
T/C [11]: 101 % of control
T/C [12]: 104 % of control

CN(C)Cc1cc(CN(C)C)c(O)c(CN(C)C)c1
T/C [13]: 107 % of control
T/C [14]: 100 % of control

CCC(=O)OC1(c2ccccc2)CCN(C/C=C/c2ccccc2[N+](=O)[O-])CC1
T/C (endpoint: median survival time, dose: 12.5 mg/kg/injection, schedule: Q04DX003 (ip), vehicle: saline with Tween-80): 100 % of control
T/C (endpoint: median survival time, dose: 25.0 mg/kg/injection, schedule: Q04DX003 (ip), vehicle: saline with Tween-80): 88 % of control
T/C (endpoint: median survival time, dose: 50.0 mg/kg/injection, schedule: Q04DX003 (ip), vehicle: saline with Tween-80): 100 % of control
T/C (endpoint: median survival time, dose: 100.0 mg/kg/injection, schedule: Q04DX003 (ip), vehicle: saline with Tween-80): 100 % of control

Cc1ccc(S(=O)(=O)Nc2cccc3c(NS(=O)(=O)c4ccc(C)cc4)cccc23)cc1
T/C [4]: 96 % of control
T/C [8]: 100 % of control
T/C [5]: 96 % of control

CCOC(=O)NC(C)(C)CN(C(=O)OCC)C(C)C
T/C (endpoint: mean survival time, dose: 100.0 mg/kg/injection, schedule: Q01DX009 (ip), vehicle: other): 102 % of control
T/C (endpoint: mean survival time, dose: 200.0 mg/kg/injection, schedule: Q01DX009 (ip), vehicle: other): 104 % of control

Cc1c(NC(=O)Nc2ccc(C3=NCCCN3)cc2)cccc1NC(=O)Nc1ccc(C2=NCCCN2)cc1
T/C (endpoint: mean survival time, dose: 125.0 mg/kg/injection, schedule: Q01DX Z (ip), vehicle: water): 162 % of control
T/C (endpoint: mean survival time, dose: 250.0 mg/kg/injection, schedule: Q01DX Z (ip), vehicle: water): 177 % of control
T/C (endpoint: mean survival time, dose: 500.0 mg/kg/injection, schedule: Q01DX Z (ip), vehicle: water): 224 % of control

C[N+]1(CCO)C2CCC1CC(O)C2 (stereo not drawn)
T/C [6]: 97 % of control
T/C [7]: 102 % of control

COc1ccc(NC(=O)Oc2cc(C(C)C)ccc2C)cc1
T/C [15]: 98 % of control
T/C [16]: 98 % of control
T/C [17]: 94 % of control

CSC(=S)NNC(=O)c1cccc(S(=O)(=O)F)c1
T/C (endpoint: mean survival time, dose: 75.0 mg/kg/injection, schedule: Q01DX001 (ip), vehicle: saline): 97 % of control
T/C (endpoint: mean survival time, dose: 150.0 mg/kg/injection, schedule: Q01DX001 (ip), vehicle: saline): 96 % of control
T/C (endpoint: mean survival time, dose: 300.0 mg/kg/injection, schedule: Q01DX001 (ip), vehicle: saline): 96 % of control

CCNc1ncc2ccccc2c1-c1ccc(NCCN(CCCl)CCCl)cc1
T/C (endpoint: mean survival time, dose: 25.0 mg/kg/injection, schedule: Q04DX003 (ip), vehicle: water): 98 % of control
T/C (endpoint: mean survival time, dose: 50.0 mg/kg/injection, schedule: Q04DX003 (ip), vehicle: water): 100 % of control
T/C (endpoint: mean survival time, dose: 100.0 mg/kg/injection, schedule: Q04DX003 (ip), vehicle: water): 90 % of control

CCOC(CSCC#N)OCC
T/C (endpoint: mean survival time, dose: 12.5 mg/kg/injection, schedule: Q01DX009 (ip), vehicle: saline sonified): 102 % of control
T/C (endpoint: mean survival time, dose: 12.5 mg/kg/injection, schedule: Q04DX003 (ip), vehicle: saline sonified): 98 % of control
T/C (endpoint: mean survival time, dose: 25.0 mg/kg/injection, schedule: Q01DX009 (ip), vehicle: saline sonified): 104 % of control
T/C (endpoint: mean survival time, dose: 25.0 mg/kg/injection, schedule: Q04DX003 (ip), vehicle: saline sonified): 98 % of control
T/C (endpoint: mean survival time, dose: 50.0 mg/kg/injection, schedule: Q01DX009 (ip), vehicle: saline sonified): 102 % of control
T/C (endpoint: mean survival time, dose: 50.0 mg/kg/injection, schedule: Q04DX003 (ip), vehicle: saline sonified): 98 % of control

CCOC(=O)C(C(=O)OCC)C1CCC2(C)CCC(=O)C=C2C1 (stereo not drawn)
T/C [15]: 100 % of control and 107 % of control and 108 % of control
T/C [16]: 100 % of control and 101 % of control and 104 % of control
T/C [17]: 98 % of control and 100 % of control
T/C (endpoint: mean survival time, dose: 600.0 mg/kg/injection, schedule: Q04DX002 (ip), vehicle: saline with Tween-80): 109 % of control

c1ccc(OCCSc2ccccc2)cc1
T/C (endpoint: mean survival time, dose: 100.0 mg/kg/injection, schedule: Q01DX001 (ip), vehicle: saline): 102 % of control
T/C (endpoint: mean survival time, dose: 200.0 mg/kg/injection, schedule: Q01DX001 (ip), vehicle: saline): 104 % of control
T/C (endpoint: mean survival time, dose: 400.0 mg/kg/injection, schedule: Q01DX001 (ip), vehicle: saline): 104 % of control

CCC(C)CC(=O)O (stereo not drawn)
T/C [18]: 95 % of control
T/C [13]: 102 % of control
T/C [19]: 98 % of control
T/C [14]: 102 % of control
T/C (endpoint: mean survival time, dose: 400.0 mg/kg/injection, schedule: Q01DX009 (ip), vehicle: saline): 96 % of control
T/C (endpoint: mean survival time, dose: 400.0 mg/kg/injection, schedule: Q04DX003 (ip), vehicle: saline): 97 % of control

Cc1sc2ncnc(Cl)c2c1C
T/C (endpoint: mean survival time, dose: 25.0 mg/kg/injection, schedule: Q04DX003 (ip), vehicle: saline with Tween-80): 103 % of control
T/C (endpoint: mean survival time, dose: 50.0 mg/kg/injection, schedule: Q04DX003 (ip), vehicle: saline with Tween-80): 114 % of control
T/C [1]: 97 % of control
T/C [4]: 94 % of control

O=C(NC(=O)c1ccccc1)NS(=O)(=O)c1ccccc1
T/C [11]: 113 % of control
T/C [12]: 109 % of control
T/C (endpoint: mean survival time, dose: 400.0 mg/kg/injection, schedule: Q01DX009 (ip), vehicle: saline with Tween-80): 98 % of control

Nc1ccn([C@@H](C=O)O[C@@H](C=O)CO)c(=O)n1
T/C (endpoint: mean survival time, dose: 6.25 mg/kg/injection, schedule: Q01DX009 (ip), vehicle: saline): 105 % of control
T/C (endpoint: mean survival time, dose: 12.5 mg/kg/injection, schedule: Q01DX009 (ip), vehicle: saline): 114 % of control and 108 % of control
T/C (endpoint: mean survival time, dose: 25.0 mg/kg/injection, schedule: Q01DX009 (ip), vehicle: saline): 115 % of control and 117 % of control
T/C (endpoint: mean survival time, dose: 50.0 mg/kg/injection, schedule: Q01DX009 (ip), vehicle: saline): 121 % of control
T/C (endpoint: mean survival time, dose: 70.0 mg/kg/injection, schedule: Q01DX001 (ip), vehicle: saline): 114 % of control
T/C [18]: 155 % of control and 162 % of control
T/C (endpoint: mean survival time, dose: 140.0 mg/kg/injection, schedule: Q01DX001 (ip), vehicle: saline): 124 % of control
T/C [19]: 211 % of control
